Assay results from PMC6934184, “Selective DNA-PKcs inhibition extends the therapeutic index of localized radiotherapy and chemotherapy” (The Journal of Clinical Investigation, 2019).

Biological target: T1, CDK14 (PFTK1)/cyclin Y (Homo sapiens, UniProt O94921)
T1 construct: purchased Thermo Fisher Scientific (Life Technologies) SelectScreen
Experiment: SelectScreen LanthaScreen
Format: binding
Settings: 1 µM
Method in brief: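 SelectScreen broad panel; activity (Z'LYTE, Adapta) plus binding formats. ATP: Km app for CSF1R Z'LYTE; 10 for CAMK1 Adapta. Readout = % per kinase.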

T1 sequence (O94921 whole entry): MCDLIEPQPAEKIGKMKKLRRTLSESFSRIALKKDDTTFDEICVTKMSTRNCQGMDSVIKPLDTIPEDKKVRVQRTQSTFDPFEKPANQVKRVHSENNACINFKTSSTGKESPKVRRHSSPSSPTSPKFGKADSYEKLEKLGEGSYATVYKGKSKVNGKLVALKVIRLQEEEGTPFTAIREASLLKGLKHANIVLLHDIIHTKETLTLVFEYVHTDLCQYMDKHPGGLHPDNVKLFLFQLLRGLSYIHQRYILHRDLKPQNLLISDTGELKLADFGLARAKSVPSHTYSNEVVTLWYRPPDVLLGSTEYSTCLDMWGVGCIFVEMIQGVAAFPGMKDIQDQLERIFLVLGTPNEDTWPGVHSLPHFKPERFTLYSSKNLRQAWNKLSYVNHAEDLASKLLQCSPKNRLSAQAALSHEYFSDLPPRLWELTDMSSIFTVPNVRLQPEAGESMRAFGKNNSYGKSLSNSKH
T1 sequence (Q8ND76 whole entry partner): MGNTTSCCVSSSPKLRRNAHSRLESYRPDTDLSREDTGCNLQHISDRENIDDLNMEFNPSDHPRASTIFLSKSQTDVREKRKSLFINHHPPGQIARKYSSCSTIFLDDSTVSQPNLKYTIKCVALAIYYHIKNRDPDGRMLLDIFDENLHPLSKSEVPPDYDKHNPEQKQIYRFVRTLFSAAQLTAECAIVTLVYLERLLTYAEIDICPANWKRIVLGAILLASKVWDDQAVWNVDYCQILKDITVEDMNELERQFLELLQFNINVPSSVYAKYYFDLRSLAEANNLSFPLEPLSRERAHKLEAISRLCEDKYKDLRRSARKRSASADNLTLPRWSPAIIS

## CN(C(=O)CN1CCOCC1)c1ccc2sc3c(-c4cccc5c(=O)cc(N6CC7CCC(C6)O7)oc45)cccc3c2c1 [NU5455]
  % displacement: 5.1%
